Test results from patent publication US20220079889A1, “USE OF CANNABANOIDS IN THE TREATMENT OF PROLIFERATIVE DIABETIC RETINOPATHY” (VERDANT PHARMACEUTICALS, LLC, priority 2020, published 2022).

How the values were obtained:
TNF-α = test: ELISA of RPE-choroid complex after laser injury: TNF-α; format: in vivo, rat; details: laser-treated animals, 3 days after laser injury; 0.3 mg/kg BW daily i.p.
Method: To block CB, a specific CBD, Compound 11 described above, was used (R-tech Ueno, Ltd., Tokyo, Japan). After laser injury, the inhibitor (0.3 mg/kg BW) was administered to the animals by daily i.p. injections. As a control, some animals received the same regimen for the vehicle solution alone.
The RPE-choroid complex was carefully isolated from eyes 3 days after photocoagulation and placed in 300 μl of lysis buffer supplemented with protease inhibitors and sonicated. The lysate was centrifuged at 15,000 rpm for 15 minutes at 4° C. and the levels of TNF-α, monocyte chemotactic protein (MCP)-1, and intercellular adhesion molecule (ICAM)-1 were determined with rat TNF-α (BI) bioscience), MCP-1 (BD bioscience) and ICAM-1 (R&D Systems, Minneapolis, Minn.) enzyme-linked immunosorbent assay (ELISA) kits according to the manufacturers' protocols. Total protein concentration was determined using a Bio-Rad Protein Assay Kit (Bio-Rad Laboratories Hercules, Calif.) and dilutions of bovine serum albumin (Bio-Rad Laboratories) as standards.

[1] = test system: IL-1β-induced corneal angiogenesis; test: IL-1β-induced corneal angiogenesis; format: in vivo, BALB/c mice; details: 0.3 mg/kg daily i.p.; compared with untreated controls
Method: BALB/c mice were anesthetized by intraperitoneal (i.p.) injection of pentobarbital sodium (60 mg/kg). Hydron pellets (0.3 μl) containing 30 ng mouse IL-1β (401-ML, R&D Systems) were prepared and implanted into the corneas. Pellets were positioned 1 mm from the corneal limbus. Implanted eyes were treated with Bacitracin ophthalmic ointment (E. Fougera & Co.) to prevent infection. To block CB, mice received daily i.p. injections of a specific CBD. Compound II (R-tech Ueno Ltd., Tokyo, Japan) as described above. A daily dose of 0.3 mg/kg was administered at day 0 and continued until the sixth day after implantation. Two, four and six days after implantation, digital images of the corneal vessels were obtained and recorded using OpenLab software version 2.2.5 (Improvision Inc.) with standardized illumination and contrast and were saved onto disks. The quantitative analysis of new vessel growth in the mouse corneas was performed using Scion Image software (version 4.0.2, Scion Corp.).

CC(=O)Nc1nc(CCc2ccc(NC(=N)NN)cc2)c(Cc2ccc(S(C)(=O)=O)cc2)s1 [Compound II]
protein level of TNF-α in the RPE-choroid complex (TNF-α): 360 ± 12 pg/mg
effect on corneal angiogenesis (in words) [1]: effectively suppresses corneal angiogenesis
